# Experimental data published in paper PMC8945229, “Development and Biological Characterization of a Novel Selective TrkA Agonist with Neuroprotective Properties against Amyloid Toxicity” (Biomedicines, 2022).
# Key:
# PC12 cells = test: CellTox assay, serum deprivation-induced cell death; format: cell-based
# Method: CellTox assay (G8742, Promega Corporation, Maddison, WI, USA) was used to assess survival of PC12 cells under serum deprivation conditions. PC12 cells were plated in 96-well plates, starved of serum for 4 h and subsequently treated with NGF (100 ng/mL) or ENT-A013 (500 nM) in the presence or absence of TrkA inhibitor GW441756 (20 μM, G-190, Alomone labs, Jerusalem, Israel) for 24 h. CellTox assay reagents and Hoescht (1:10,000, H3570, Invitrogen, Waltham, MA, USA) were added to each well for 30′ and cells were then imaged with a Zeiss AXIO Vert A1 fluorescent microscope (Zeiss, Jena, Germany). CellTox positive cells were normalized to total number of cells for each image.
# [1] = system: Primary Dorsal Root Ganglia (DRG) neurons; test: Neurite outgrowth assay in primary DRG neurons without NGF; format: cell-based, mouse; details: 500 nM every 48 h, 5 DIV, NGF-neutralizing antibody
# Method: Primary Dorsal Root Ganglia (DRG) neurons were isolated from P0-P1 mouse pups (C57BL/6J, The Jackson Laboratory, Bar Harbor, ME, USA) as described previously and cultured with Neurobasal medium (21103049 Gibco, Grand Island, NY, USA) containing 2% B27 (17504044, Gibco, Grand Island, NY, USA), 100 ng/mL NGF (N-100, Alomone Labs, Jerusalem, Israel), 1X GlutaMax (35050061, Gibco, Grand Island, NY, USA), 10 mM HEPES (15630080, Gibco, Grand Island, NY, USA), 1% Penicillin/Streptomycin (15070063, Gibco, Grand Island, NY, USA) and 10 μM 5-Fluoro-2′-deoxyuridine (343333, Calbiochem, Darmstadt, Germany). For TUNEL assay, cells were cultured for 14 days in vitro and then the medium was deprived of NGF before adding ENT-A013 (500 nM, every 24 h) along with NGF-neutralizing antibody (N8773, 1:500, Sigma-Aldrich, St. Louis, MO, USA). Cells were then incubated for 48 h before being fixed with 4% PFA and labelled with TUNEL (11684795910, F. Hoffmann–La Roche Ltd., Basel, Switzerland) following the manufacturer’s protocol. Subsequently, cells were immunostained against Tuj1 (1:2000, 801201, Biolegend, Inc., San Diego, CA, USA) and anti-mouse Cy3 (1:1000, Invitrogen, A10521, Waltham, MA, USA) and imaged with a Leica SP8 confocal microscope. […] Cells were then imaged by confocal microscopy and neurite length was measured using Fiji software (NIH, Bethesda, Maryland, USA).
# NIH-3T3-TrkB cells = test: CellTox assay in serum-starved NIH-3T3-TrkB cells; format: cell-based; details: 24hrs
# Method: treated with ENT-A013 (500nM) or Neurotrophin-3 (100ng/ml) for 30’ and then subjected to Western Blot against phosphorylated TrkC, Akt and Erk1/2. […]
# phosphorylated any of those. (D) CellTox assay was performed in NIH-3T3-TrkB cells that were starved from serum and treated with ENT-A013 or BDNF for 24hrs. Quantification (E) […]
# negative control (Serum Free).
# Supplementary Figure S3: Primary DRG neurons were cultured in the presence of ENT-A013 (500nM, supplemented every 48hrs) and a neutralizing antibody against NGF for 5 days and then neurite length was measured by immunostaining against Tuj1 .
# Supplementary Figure S4: Primary hippocampal neurons at 14-16 DIV were treated with oligomeric Aβ and in the presence of ENT-A013 (500nM, supplemented every 24hrs) for 48hrs and then were subjected to Western Blot against phosphorylated JNK. A representative blot […]
# [2] = Metabolic stability in human liver microsomes; format: in vitro ADME; details: 1 μM, 0.5 mg/mL microsomes, 1 mM NADPH, t = 60 min
# Method: Human liver microsome (pooled) concentration was set at 0.5 mg/mL and 1 mM NADPH served as a cofactor for oxidative (CYP-mediated) metabolic stability profiling. ENT-A013 was tested at 1 μM. Incubation conditions ensured linear metabolite formation with respect to reaction time and protein concentration. Incubations took place in triplicates at 37 °C in the presence of negative and positive controls (low vs. rapid clearance). Each reaction was terminated after the specified incubation period (60 min) and plates were read on Lionheart FX (BioTek, Winooski, VT, USA). Residual (%) of time zero (ENT-A013 depletion) was determined.
smiles,measurement,setting,value
"CC12CCC(O)CC1=CCC1C2CCC2(C)C1CCC21CC1C=CBr [ENT-A013, (2′R,3S,17S)-2′-(2-Bromovinyl)-5-Androstene-17,1′-Cyclopropan-3-ol]",IC50,"PC12 cells; Rattus norvegicus, PC-12, serum deprivation, CellTox, read-out: IC50 (anti-apoptotic dose–response)",167 nM
same,CellTox positive cells normalized to total number of cells,"PC12 cells; serum deprivation, 24 h, 500 nM",0.11 ± 0.01
same,axonal / neurite length (in words),[1],this difference was not significant
same,cell death vs negative control (Serum Free) (in words),NIH-3T3-TrkB cells,no significant difference
same,residual of time zero,[2],93%
